In patent US20230017045A1, “PYRIDINE AND PYRIMIDINE CARBOXYLATE HERBICIDES AND METHODS OF USE THEREOF” (Dow AgroSciences LLC, priority 2017, published 2023):

What follows are compounds tested on test plant species (assay: Post-emergent herbicidal activity test (greenhouse, foliar spray, visual growth reduction)). Settings: post-emergence, 336 h, ECHCG: barnyardgrass (Echinochloa crus-galli), 140 g ai/ha, 14 days after application, read-out: Visual Growth Reduction (%) 14 Days After Application, ECHCG.
Type: in vivo
Procedure: Post-emergent Test: Seeds or nutlets of the desired test plant species were planted in Sun Gro Metro-Mix® 360 planting mixture, which typically has a pH of 6.0 to 6.8 and an organic matter content of about 30 percent, in plastic pots with a surface area of 64 square centimeters. In some aspects, to ensure good germination and healthy plants, a fungicide treatment and/or other chemical or physical treatment was applied. The plants were grown for 7-21 d in a greenhouse with an approximate 15 h photoperiod which was maintained at 23-29° C. during the day and 22-28° C. during the night. Nutrients and water were added on a regular basis and supplemental lighting was provided with overhead metal halide 1000-Watt lamps as necessary. Plants were used for testing when they reached the first or second true leaf stage. A weighed amount, determined by the highest rate to be tested, of each test compound was placed in a 25 mL glass vial and was dissolved in 4 mL of a 97:3 v/v mixture of acetone and DMSO to obtain concentrated stock solutions. […] The concentrated stock solutions obtained were diluted with 20 mL of an aqueous mixture containing acetone, water, isopropyl alcohol, DMSO, […] crop oil concentrate, and X-77 surfactant in a 48.5:39:10:1.5:1.0:0.02 v/v ratio to obtain spray solutions containing the application rate. Compound requirements are based upon a 12 mL application volume at a rate of 187 liters per hectare (L/ha). Formulated compounds were applied to the plant material with an overhead Mandel track sprayer equipped with […] nozzles calibrated to deliver 187 L/ha over an application area of 0.64 square meters at a spray height of 18 inches (43 cm) above the average plant canopy height. Control plants were sprayed in the same manner with the solvent blank. The treated plants and control plants were placed in a greenhouse as described above and watered by subirrigation to prevent wash-off of the test compounds. After 14 d, the condition of the test plants as compared with that of the nontreated and control plants was determined visually and scored on a scale of 0 to 100 percent where 0 corresponds to no injury and 100 corresponds to complete control. In the reporting of the results, Table A: Percent Growth Reduction Conversion Table was used.

Q: With `COC(=O)c1nc(-c2ccc(C(F)(F)F)c(N)c2)ccc1Cl` [F218, methyl 6-(3-amino-4-(trifluoromethyl)phenyl)-3-chloropicolinate] as the compound, how does the pest or weed control at 140 g/ha read?
A: 0 to 29%

Q: `COC(=O)c1nc(-c2cc(Cl)c(C(F)(F)F)cc2C)c(F)cc1Cl` [F370, Methyl 3-chloro-6-(5-chloro-2-methyl-4-(trifluoromethyl)phenyl)-5-fluoropicolinate] was tested. Which pest or weed control at 140 g/ha did it give?
A: 0 to 29%

Same assay, conditions: post-emergence, 336 h, IPOHE: ivy-leaf morning glory (Ipomoea hederacea), 140 g ai/ha, 14 days after application, read-out: Visual Growth Reduction (%) 14 Days After Application, IPOHE

Q: For `COC(=O)c1nc(-c2ccc(C(F)(F)F)c(N)c2)ccc1Cl` [F218, methyl 6-(3-amino-4-(trifluoromethyl)phenyl)-3-chloropicolinate], which pest or weed control at 140 g/ha is on record?
A: 0 to 29%

Q: `COC(=O)c1nc(-c2cc(Cl)c(C(F)(F)F)cc2C)c(F)cc1Cl` [F370, Methyl 3-chloro-6-(5-chloro-2-methyl-4-(trifluoromethyl)phenyl)-5-fluoropicolinate] was tested. Which pest or weed control at 140 g/ha did it give?
A: 95 to 100%

Same assay, conditions: post-emergence, 336 h, KCHSC: kochia (Bassia scoparia), 140 g ai/ha, 14 days after application, read-out: Visual Growth Reduction (%) 14 Days After Application, KCHSC

Q: For `COC(=O)c1nc(-c2ccc(C(F)(F)F)c(N)c2)ccc1Cl` [F218, methyl 6-(3-amino-4-(trifluoromethyl)phenyl)-3-chloropicolinate], which pest or weed control at 140 g/ha is on record?
A: 0 to 29%

Q: With `COC(=O)c1nc(-c2cc(Cl)c(C(F)(F)F)cc2C)c(F)cc1Cl` [F370, Methyl 3-chloro-6-(5-chloro-2-methyl-4-(trifluoromethyl)phenyl)-5-fluoropicolinate] as the compound, how does the pest or weed control at 140 g/ha read?
A: 0 to 29%

Same assay, conditions: post-emergence, 336 h, ORYSA: rice (Oryza sativa), 140 g ai/ha, 14 days after application, read-out: Visual Growth Reduction (%) 14 Days After Application, ORYSA

Q: With `COC(=O)c1nc(-c2ccc(C(F)(F)F)c(N)c2)ccc1Cl` [F218, methyl 6-(3-amino-4-(trifluoromethyl)phenyl)-3-chloropicolinate] as the compound, how does the pest or weed control at 140 g/ha read?
A: 0 to 29%

Q: How did the pest or weed control at 140 g/ha turn out when `COC(=O)c1nc(-c2cc(Cl)c(C(F)(F)F)cc2C)c(F)cc1Cl` [F370, Methyl 3-chloro-6-(5-chloro-2-methyl-4-(trifluoromethyl)phenyl)-5-fluoropicolinate] was run?
A: 0 to 29%

Same assay, conditions: post-emergence, 336 h, SETFA: giant foxtail (Setaria faberi), 140 g ai/ha, 14 days after application, read-out: Visual Growth Reduction (%) 14 Days After Application, SETFA

Q: For `COC(=O)c1nc(-c2ccc(C(F)(F)F)c(N)c2)ccc1Cl` [F218, methyl 6-(3-amino-4-(trifluoromethyl)phenyl)-3-chloropicolinate], which pest or weed control at 140 g/ha is on record?
A: 0 to 29%

Q: Which pest or weed control at 140 g/ha does the source give for `COC(=O)c1nc(-c2cc(Cl)c(C(F)(F)F)cc2C)c(F)cc1Cl` [F370, Methyl 3-chloro-6-(5-chloro-2-methyl-4-(trifluoromethyl)phenyl)-5-fluoropicolinate] here?
A: 60 to 74%

Same assay, conditions: post-emergence, 336 h, SORVU: grain sorghum (Sorghum vulgare), 140 g ai/ha, 14 days after application, read-out: Visual Growth Reduction (%) 14 Days After Application, SORVU

Q: Which pest or weed control at 140 g/ha does the source give for `COC(=O)c1nc(-c2ccc(C(F)(F)F)c(N)c2)ccc1Cl` [F218, methyl 6-(3-amino-4-(trifluoromethyl)phenyl)-3-chloropicolinate] here?
A: 0 to 29%

Q: Which pest or weed control at 140 g/ha does the source give for `COC(=O)c1nc(-c2cc(Cl)c(C(F)(F)F)cc2C)c(F)cc1Cl` [F370, Methyl 3-chloro-6-(5-chloro-2-methyl-4-(trifluoromethyl)phenyl)-5-fluoropicolinate] here?
A: 85 to 94%

Same assay, conditions: post-emergence, 336 h, STEME: common chickweed (Stellaria media), 140 g ai/ha, 14 days after application, read-out: Visual Growth Reduction (%) 14 Days After Application, STEME

Q: For `COC(=O)c1nc(-c2ccc(C(F)(F)F)c(N)c2)ccc1Cl` [F218, methyl 6-(3-amino-4-(trifluoromethyl)phenyl)-3-chloropicolinate], which pest or weed control at 140 g/ha is on record?
A: 0 to 29%

Q: For `COC(=O)c1nc(-c2cc(Cl)c(C(F)(F)F)cc2C)c(F)cc1Cl` [F370, Methyl 3-chloro-6-(5-chloro-2-methyl-4-(trifluoromethyl)phenyl)-5-fluoropicolinate], which pest or weed control at 140 g/ha is on record?
A: 0 to 29%

Same assay, conditions: post-emergence, 336 h, TRZAS: wheat, spring (Triticum aestivum), 140 g ai/ha, 14 days after application, read-out: Visual Growth Reduction (%) 14 Days After Application, TRZAS

Q: With `COC(=O)c1nc(-c2ccc(C(F)(F)F)c(N)c2)ccc1Cl` [F218, methyl 6-(3-amino-4-(trifluoromethyl)phenyl)-3-chloropicolinate] as the compound, how does the pest or weed control at 140 g/ha read?
A: 0 to 29%

Q: Which pest or weed control at 140 g/ha does the source give for `COC(=O)c1nc(-c2cc(Cl)c(C(F)(F)F)cc2C)c(F)cc1Cl` [F370, Methyl 3-chloro-6-(5-chloro-2-methyl-4-(trifluoromethyl)phenyl)-5-fluoropicolinate] here?
A: 0 to 29%

Same assay, conditions: post-emergence, 336 h, blackgrass (Alopecurus myosuroides), 14 Days After Application, 140 g ai/ha, read-out: Visual Growth Reduction (%) ALOMY

Q: How did the pest or weed control at 140 g/ha turn out when `COC(=O)c1nc(-c2ccc(C(F)(F)F)c(N)c2)ccc1Cl` [F218, methyl 6-(3-amino-4-(trifluoromethyl)phenyl)-3-chloropicolinate] was run?
A: 0 to 29%

Q: For `COC(=O)c1nc(-c2cc(Cl)c(C(F)(F)F)cc2C)c(F)cc1Cl` [F370, Methyl 3-chloro-6-(5-chloro-2-methyl-4-(trifluoromethyl)phenyl)-5-fluoropicolinate], which pest or weed control at 140 g/ha is on record?
A: 0 to 29%

Same assay, conditions: post-emergence, 336 h, canada thistle (Cirsium arvense), 14 Days After Application, 140 g ai/ha, read-out: Visual Growth Reduction (%) CIRAR

Q: Which pest or weed control at 140 g/ha does the source give for `COC(=O)c1nc(-c2ccc(C(F)(F)F)c(N)c2)ccc1Cl` [F218, methyl 6-(3-amino-4-(trifluoromethyl)phenyl)-3-chloropicolinate] here?
A: 30 to 44%

Q: How did the pest or weed control at 140 g/ha turn out when `COC(=O)c1nc(-c2cc(Cl)c(C(F)(F)F)cc2C)c(F)cc1Cl` [F370, Methyl 3-chloro-6-(5-chloro-2-methyl-4-(trifluoromethyl)phenyl)-5-fluoropicolinate] was run?
A: 75 to 84%

Same assay, conditions: post-emergence, 336 h, crabgrass (Digitaria sanguinalis), 14 Days After Application, 140 g ai/ha, read-out: Visual Growth Reduction (%) DIGSA

Q: With `COC(=O)c1nc(-c2ccc(C(F)(F)F)c(N)c2)ccc1Cl` [F218, methyl 6-(3-amino-4-(trifluoromethyl)phenyl)-3-chloropicolinate] as the compound, how does the pest or weed control at 140 g/ha read?
A: 0 to 29%

Q: With `COC(=O)c1nc(-c2cc(Cl)c(C(F)(F)F)cc2C)c(F)cc1Cl` [F370, Methyl 3-chloro-6-(5-chloro-2-methyl-4-(trifluoromethyl)phenyl)-5-fluoropicolinate] as the compound, how does the pest or weed control at 140 g/ha read?
A: 45 to 59%

Same assay, conditions: post-emergence, 336 h, lambsquarters (Chenopodium album), 14 Days After Application, 140 g ai/ha, read-out: Visual Growth Reduction (%) CHEAL

Q: With `COC(=O)c1nc(-c2ccc(C(F)(F)F)c(N)c2)ccc1Cl` [F218, methyl 6-(3-amino-4-(trifluoromethyl)phenyl)-3-chloropicolinate] as the compound, how does the pest or weed control at 140 g/ha read?
A: 60 to 74%

Q: How did the pest or weed control at 140 g/ha turn out when `COC(=O)c1nc(-c2cc(Cl)c(C(F)(F)F)cc2C)c(F)cc1Cl` [F370, Methyl 3-chloro-6-(5-chloro-2-methyl-4-(trifluoromethyl)phenyl)-5-fluoropicolinate] was run?
A: 45 to 59%

Same assay, conditions: post-emergence, 336 h, redroot pigweed (Amaranthus retroflexus), 14 Days After Application, 140 g ai/ha, read-out: Visual Growth Reduction (%) AMARE

Q: With `COC(=O)c1nc(-c2ccc(C(F)(F)F)c(N)c2)ccc1Cl` [F218, methyl 6-(3-amino-4-(trifluoromethyl)phenyl)-3-chloropicolinate] as the compound, how does the pest or weed control at 140 g/ha read?
A: 0 to 29%

Q: How did the pest or weed control at 140 g/ha turn out when `COC(=O)c1nc(-c2cc(Cl)c(C(F)(F)F)cc2C)c(F)cc1Cl` [F370, Methyl 3-chloro-6-(5-chloro-2-methyl-4-(trifluoromethyl)phenyl)-5-fluoropicolinate] was run?
A: 85 to 94%

Same assay, conditions: post-emergence, 336 h, wild oat (Avena fatua), 14 Days After Application, 140 g ai/ha, read-out: Visual Growth Reduction (%) AVEFA

Q: Which pest or weed control at 140 g/ha does the source give for `COC(=O)c1nc(-c2ccc(C(F)(F)F)c(N)c2)ccc1Cl` [F218, methyl 6-(3-amino-4-(trifluoromethyl)phenyl)-3-chloropicolinate] here?
A: 0 to 29%

Q: With `COC(=O)c1nc(-c2cc(Cl)c(C(F)(F)F)cc2C)c(F)cc1Cl` [F370, Methyl 3-chloro-6-(5-chloro-2-methyl-4-(trifluoromethyl)phenyl)-5-fluoropicolinate] as the compound, how does the pest or weed control at 140 g/ha read?
A: 0 to 29%

Same assay, conditions: post-emergence, 336 h, yellow nutsedge (Cyperus esculentus), 14 Days After Application, 140 g ai/ha, read-out: Visual Growth Reduction (%) CYPES

Q: `COC(=O)c1nc(-c2ccc(C(F)(F)F)c(N)c2)ccc1Cl` [F218, methyl 6-(3-amino-4-(trifluoromethyl)phenyl)-3-chloropicolinate] was tested. Which pest or weed control at 140 g/ha did it give?
A: 0 to 29%

Q: `COC(=O)c1nc(-c2cc(Cl)c(C(F)(F)F)cc2C)c(F)cc1Cl` [F370, Methyl 3-chloro-6-(5-chloro-2-methyl-4-(trifluoromethyl)phenyl)-5-fluoropicolinate] was tested. Which pest or weed control at 140 g/ha did it give?
A: 0 to 29%
